Measurements reported in ChEMBL document CHEMBL4390652, “Design, biological evaluation and X-ray crystallography of nanomolar multifunctional ligands targeting simultaneously acetylcholinesterase and glycogen synthase kinase-3” (Eur J Med Chem, 2019).

Legend:
[1] = system: Epidermal growth factor receptor (Homo sapiens), P00533 [G719C]; test: Binding affinity to human partial length EGFR G719C mutant (R669 to V1011 residues) expressed in bacterial expression system assessed as residual binding level at 10 uM by Kinomescan method relative to control
[2] = biological target: Tyrosine-protein kinase Fes/Fps (Homo sapiens) (UniProt P07332); test: Binding affinity to wild-type human partial length FES (I527 to R822 residues) expressed in bacterial expression system assessed as residual binding level at 10 uM by Kinomescan method relative to control
[3] = biological target: Rhodopsin kinase GRK1 (Homo sapiens) (UniProt Q15835); test: Binding affinity to wild-type human full length GRK1 (M1 to S563 residues) expressed in mammalian expression system assessed as residual binding level at 10 uM by Kinomescan method relative to control
[4] = biological target: Leucine-rich repeat serine/threonine-protein kinase 2 (Homo sapiens) (UniProt Q5S007); test: Binding affinity to wild-type human partial length LRRK2 (H970 to E2527 residues) expressed in mammalian expression system assessed as residual binding level at 10 uM by Kinomescan method relative to control
[5] = biological target: Serine/threonine-protein kinase TNNI3K (Homo sapiens) (UniProt Q59H18); test: Binding affinity to wild-type human full length TNNI3K (M1 to S835 residues) expressed in bacterial expression system assessed as residual binding level at 10 uM by Kinomescan method relative to control
[6] = biological target: Mitogen-activated protein kinase 13 (Homo sapiens) (UniProt O15264); test: Binding affinity to wild-type human full length p38-delta (M1 to L365 residues) expressed in bacterial expression system assessed as residual binding level at 10 uM by Kinomescan method relative to control
[7] = biological target: G protein-coupled receptor kinase 4 (Homo sapiens) (UniProt P32298); test: Binding affinity to wild-type human full length GRK4 (M1 to C578 residues) expressed in bacterial expression system assessed as residual binding level at 10 uM by Kinomescan method relative to control
MDCK-MDR1 = test: Cytotoxicity against MDCK2-MDR1 cells assessed as reduction in cell viability at 75 uM incubated for 2 hrs by MTT assay; format: ADME, cell-based, Canis lupus familiaris; conditions: dog, mdck-mdr1, 2 h
[8] = biological target: Tyrosine-protein kinase receptor TYRO3 (Homo sapiens) (UniProt Q06418); test: Binding affinity to wild-type human partial length TYRO3 (S497 to T814 residues) expressed in bacterial expression system assessed as residual binding level at 10 uM by Kinomescan method relative to control
[9] = biological target: Serine/threonine-protein kinase tousled-like 2 (Homo sapiens) (UniProt Q86UE8); test: Binding affinity to wild-type human partial length TLK2 (E424 to N749 residues) expressed in bacterial expression system assessed as residual binding level at 10 uM by Kinomescan method relative to control
[10] = biological target: SRSF protein kinase 1 (Homo sapiens) (UniProt Q96SB4); test: Binding affinity to wild-type human full length SRPK1 (M1 to S655 residues) expressed in bacterial expression system assessed as residual binding level at 10 uM by Kinomescan method relative to control
[11] = biological target: Receptor-interacting serine/threonine-protein kinase 2 (Homo sapiens) (UniProt O43353); test: Binding affinity to wild-type human partial length RIPK2 (M1 to K310 residues) expressed in bacterial expression system assessed as residual binding level at 10 uM by Kinomescan method relative to control
[12] = biological target: Glycogen synthase kinase-3 (Sus scrofa, UniProt B2LUN4+I6LNT8)
Description: Inhibition of native porcine brain GSK-3alpha/beta using GS-1 as substrate incubated for 30 mins in presence of [gamma-33P]ATP by liquid scintillation counting assay

[13] = biological target: Rhodopsin kinase GRK7 (Homo sapiens) (UniProt Q8WTQ7); test: Binding affinity to wild-type human full length GRK7 (M1 to L553 residues) expressed in mammalian expression system assessed as residual binding level at 10 uM by Kinomescan method relative to control
[14] = biological target: Serine/threonine-protein kinase PknB (Mycobacterium tuberculosis) (UniProt P9WI81); test: Binding affinity to wild-type Mycobacterium tuberculosis partial length PKNB (M1 to G279 residues) expressed in mammalian expression system assessed as residual binding level at 10 uM by Kinomescan method relative to control
[15] = biological target: Insulin-like growth factor 1 receptor (Homo sapiens) (UniProt P08069); test: Binding affinity to wild-type human partial length IGF1R (L972 to D1294 residues) expressed in bacterial expression system assessed as residual binding level at 10 uM by Kinomescan method relative to control
[16] = system: Tyrosine-protein kinase ABL1 (Homo sapiens), P00519 [Q252H]; test: Binding affinity to human phosphorylated ABL1 Q252H mutant expressed in mammalian expression system assessed as residual binding level at 10 uM by Kinomescan method relative to control
[17] = system: Proto-oncogene tyrosine-protein kinase receptor Ret (Homo sapiens), P07949 [V804L]; test: Binding affinity to human partial length RET V804L mutant (E713 to D1014 residues) expressed in bacterial expression system assessed as residual binding level at 10 uM by Kinomescan method relative to control
[18] = biological target: RAC-gamma serine/threonine-protein kinase (Homo sapiens) (UniProt Q9Y243); test: Binding affinity to wild-type human partial length AKT3 expressed in bacterial expression system assessed as residual binding level at 10 uM by Kinomescan method relative to control
[19] = system: Mast/stem cell growth factor receptor Kit (Homo sapiens), P10721 [D816V]; test: Binding affinity to human partial length KIT D816V mutant (I571 to D952 residues) expressed in bacterial expression system assessed as residual binding level at 10 uM by Kinomescan method relative to control
[20] = biological target: Serine/threonine-protein kinase Chk2 (Homo sapiens) (UniProt O96017); test: Binding affinity to wild-type human partial length CHEK2 (S253 to E574 residues) expressed in bacterial expression system assessed as residual binding level at 10 uM by Kinomescan method relative to control
[21] = biological target: Rho-associated protein kinase 1 (Homo sapiens) (UniProt Q13464); test: Binding affinity to wild-type human partial length ROCK1 (M1 to R415 residues) expressed in mammalian expression system assessed as residual binding level at 10 uM by Kinomescan method relative to control
[22] = biological target: Macrophage colony-stimulating factor 1 receptor (Homo sapiens) (UniProt P07333); test: Binding affinity to wild-type human partial length autoinhibited CSF1R (Y538 to S939 residues) expressed in mammalian expression system assessed as residual binding level at 10 uM by Kinomescan method relative to control
[23] = biological target: Serine/threonine-protein kinase DCLK2 (Homo sapiens) (UniProt Q8N568); test: Binding affinity to wild-type human partial length DCAMKL2 (K273 to V664 residues) expressed in bacterial expression system assessed as residual binding level at 10 uM by Kinomescan method relative to control
[24] = biological target: Cyclin-dependent kinase-like 1 (Homo sapiens) (UniProt Q00532); test: Binding affinity to wild-type human full length CDKL1 (M1 to I358 residues) expressed in mammalian expression system assessed as residual binding level at 10 uM by Kinomescan method relative to control

Sequence of Tyrosine-protein kinase Fes/Fps (Homo sapiens) (P07332 whole entry, the tested form may be a part): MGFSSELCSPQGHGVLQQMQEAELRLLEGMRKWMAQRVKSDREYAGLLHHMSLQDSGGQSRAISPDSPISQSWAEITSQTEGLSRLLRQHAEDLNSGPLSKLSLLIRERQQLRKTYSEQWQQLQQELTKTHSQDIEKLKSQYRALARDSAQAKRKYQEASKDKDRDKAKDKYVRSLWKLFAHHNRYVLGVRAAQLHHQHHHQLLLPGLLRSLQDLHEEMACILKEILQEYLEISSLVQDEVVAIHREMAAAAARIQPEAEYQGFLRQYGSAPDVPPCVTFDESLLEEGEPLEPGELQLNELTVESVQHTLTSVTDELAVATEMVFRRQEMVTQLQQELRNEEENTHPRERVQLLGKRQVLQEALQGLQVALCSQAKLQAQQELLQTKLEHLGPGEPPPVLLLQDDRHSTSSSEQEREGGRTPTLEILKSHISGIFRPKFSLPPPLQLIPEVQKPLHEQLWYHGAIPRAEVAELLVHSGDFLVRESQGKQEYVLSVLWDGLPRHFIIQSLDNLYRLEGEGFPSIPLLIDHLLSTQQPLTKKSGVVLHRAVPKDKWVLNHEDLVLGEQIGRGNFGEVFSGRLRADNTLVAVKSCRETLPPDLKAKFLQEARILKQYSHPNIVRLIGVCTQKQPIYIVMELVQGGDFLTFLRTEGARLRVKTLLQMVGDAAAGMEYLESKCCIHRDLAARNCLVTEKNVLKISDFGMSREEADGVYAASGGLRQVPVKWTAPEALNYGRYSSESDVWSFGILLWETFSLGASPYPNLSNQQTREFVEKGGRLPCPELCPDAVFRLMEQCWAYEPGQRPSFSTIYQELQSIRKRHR
Sequence of G protein-coupled receptor kinase 4 (Homo sapiens) (P32298 whole entry, looked up, the tested form may be a part): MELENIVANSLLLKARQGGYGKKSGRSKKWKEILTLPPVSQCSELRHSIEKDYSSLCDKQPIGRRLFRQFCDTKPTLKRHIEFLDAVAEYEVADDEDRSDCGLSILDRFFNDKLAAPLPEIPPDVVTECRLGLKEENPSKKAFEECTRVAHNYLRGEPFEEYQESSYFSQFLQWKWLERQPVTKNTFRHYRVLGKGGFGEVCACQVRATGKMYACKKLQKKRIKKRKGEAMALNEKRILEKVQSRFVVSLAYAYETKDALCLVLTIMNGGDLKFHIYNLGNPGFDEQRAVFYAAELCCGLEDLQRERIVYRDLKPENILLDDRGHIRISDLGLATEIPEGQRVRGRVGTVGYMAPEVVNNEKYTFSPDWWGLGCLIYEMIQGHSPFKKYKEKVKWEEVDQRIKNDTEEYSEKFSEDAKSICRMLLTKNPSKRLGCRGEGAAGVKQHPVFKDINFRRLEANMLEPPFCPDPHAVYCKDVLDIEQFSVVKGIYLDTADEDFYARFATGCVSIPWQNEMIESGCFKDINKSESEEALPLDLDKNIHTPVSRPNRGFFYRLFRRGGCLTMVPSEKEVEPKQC
Sequence of Receptor-interacting serine/threonine-protein kinase 2 (Homo sapiens) (O43353 whole entry, the tested form may be a part): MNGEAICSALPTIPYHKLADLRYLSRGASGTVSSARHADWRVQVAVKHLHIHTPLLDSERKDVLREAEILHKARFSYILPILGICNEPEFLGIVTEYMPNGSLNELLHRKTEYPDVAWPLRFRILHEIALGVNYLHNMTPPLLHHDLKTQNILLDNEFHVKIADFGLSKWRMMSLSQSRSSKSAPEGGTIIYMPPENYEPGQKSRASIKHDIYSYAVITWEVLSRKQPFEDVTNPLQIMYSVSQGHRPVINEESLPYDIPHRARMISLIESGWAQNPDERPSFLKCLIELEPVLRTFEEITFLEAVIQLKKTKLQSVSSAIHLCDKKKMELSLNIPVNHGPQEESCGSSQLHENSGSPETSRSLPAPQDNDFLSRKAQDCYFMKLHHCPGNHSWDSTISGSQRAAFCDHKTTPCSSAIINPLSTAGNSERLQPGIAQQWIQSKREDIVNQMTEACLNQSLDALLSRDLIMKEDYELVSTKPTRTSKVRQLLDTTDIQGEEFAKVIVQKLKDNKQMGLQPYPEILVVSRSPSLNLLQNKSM
Sequence of Mitogen-activated protein kinase 13 (Homo sapiens) (O15264 whole entry, the tested form may be a part): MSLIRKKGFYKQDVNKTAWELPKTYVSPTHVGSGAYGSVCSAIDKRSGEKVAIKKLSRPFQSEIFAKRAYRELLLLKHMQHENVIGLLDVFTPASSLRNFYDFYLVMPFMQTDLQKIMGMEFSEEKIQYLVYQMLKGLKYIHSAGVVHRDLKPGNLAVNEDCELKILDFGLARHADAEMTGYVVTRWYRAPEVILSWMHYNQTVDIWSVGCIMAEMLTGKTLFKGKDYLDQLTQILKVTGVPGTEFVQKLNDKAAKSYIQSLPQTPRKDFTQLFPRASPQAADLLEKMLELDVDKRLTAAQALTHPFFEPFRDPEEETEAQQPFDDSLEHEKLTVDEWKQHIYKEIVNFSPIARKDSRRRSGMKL
Sequence of Mast/stem cell growth factor receptor Kit (Homo sapiens), P10721 [D816V] (P10721 whole entry D816V, the tested form may be a part): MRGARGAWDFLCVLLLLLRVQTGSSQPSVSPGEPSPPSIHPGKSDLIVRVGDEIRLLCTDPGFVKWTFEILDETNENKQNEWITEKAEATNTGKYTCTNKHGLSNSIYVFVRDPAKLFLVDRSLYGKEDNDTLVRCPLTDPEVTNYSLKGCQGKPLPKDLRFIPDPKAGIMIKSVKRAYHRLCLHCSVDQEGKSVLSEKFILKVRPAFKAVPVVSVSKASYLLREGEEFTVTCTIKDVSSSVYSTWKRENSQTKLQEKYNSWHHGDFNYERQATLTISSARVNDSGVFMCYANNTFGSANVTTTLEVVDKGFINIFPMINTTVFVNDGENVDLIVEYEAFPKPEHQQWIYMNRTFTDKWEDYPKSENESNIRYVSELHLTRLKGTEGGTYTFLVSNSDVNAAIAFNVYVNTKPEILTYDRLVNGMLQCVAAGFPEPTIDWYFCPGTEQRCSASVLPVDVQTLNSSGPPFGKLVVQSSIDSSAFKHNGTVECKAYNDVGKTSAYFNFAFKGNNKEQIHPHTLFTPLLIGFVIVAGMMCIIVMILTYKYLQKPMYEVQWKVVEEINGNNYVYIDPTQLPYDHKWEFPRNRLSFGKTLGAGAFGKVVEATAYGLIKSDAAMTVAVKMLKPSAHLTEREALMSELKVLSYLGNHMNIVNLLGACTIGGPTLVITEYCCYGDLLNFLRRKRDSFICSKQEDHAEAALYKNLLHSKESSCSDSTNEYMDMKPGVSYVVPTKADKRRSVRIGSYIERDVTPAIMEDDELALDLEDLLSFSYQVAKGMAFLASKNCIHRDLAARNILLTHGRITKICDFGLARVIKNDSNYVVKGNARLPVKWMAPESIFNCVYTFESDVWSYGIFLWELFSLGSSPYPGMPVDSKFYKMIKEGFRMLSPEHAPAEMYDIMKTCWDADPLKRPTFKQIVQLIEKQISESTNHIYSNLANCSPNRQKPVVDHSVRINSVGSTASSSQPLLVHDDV
Sequence of Tyrosine-protein kinase receptor TYRO3 (Homo sapiens) (Q06418 whole entry, the tested form may be a part): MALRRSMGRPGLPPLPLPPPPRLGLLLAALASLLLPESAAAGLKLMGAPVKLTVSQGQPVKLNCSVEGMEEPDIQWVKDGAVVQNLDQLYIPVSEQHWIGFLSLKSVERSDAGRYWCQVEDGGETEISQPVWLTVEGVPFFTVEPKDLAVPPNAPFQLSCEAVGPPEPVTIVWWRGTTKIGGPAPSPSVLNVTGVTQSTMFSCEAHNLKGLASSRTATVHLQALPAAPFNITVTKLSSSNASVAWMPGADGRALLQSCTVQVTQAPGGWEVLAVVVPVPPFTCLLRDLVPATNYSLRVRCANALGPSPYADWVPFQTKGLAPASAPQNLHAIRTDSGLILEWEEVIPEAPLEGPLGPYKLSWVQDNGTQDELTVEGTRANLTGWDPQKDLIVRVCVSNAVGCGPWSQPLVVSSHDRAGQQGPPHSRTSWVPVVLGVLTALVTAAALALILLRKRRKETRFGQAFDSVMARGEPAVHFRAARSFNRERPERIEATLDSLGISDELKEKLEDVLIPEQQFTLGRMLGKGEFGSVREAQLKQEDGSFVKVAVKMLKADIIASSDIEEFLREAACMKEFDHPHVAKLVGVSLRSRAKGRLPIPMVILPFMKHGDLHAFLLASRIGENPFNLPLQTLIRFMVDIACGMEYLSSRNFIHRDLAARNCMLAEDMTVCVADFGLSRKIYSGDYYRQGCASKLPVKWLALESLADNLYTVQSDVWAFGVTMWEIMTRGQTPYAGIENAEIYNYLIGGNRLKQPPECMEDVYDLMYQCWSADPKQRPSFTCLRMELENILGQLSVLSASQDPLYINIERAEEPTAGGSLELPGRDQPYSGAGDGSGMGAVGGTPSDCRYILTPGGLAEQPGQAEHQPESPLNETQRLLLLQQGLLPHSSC
Sequence of Rhodopsin kinase GRK1 (Homo sapiens) (Q15835 whole entry, the tested form may be a part): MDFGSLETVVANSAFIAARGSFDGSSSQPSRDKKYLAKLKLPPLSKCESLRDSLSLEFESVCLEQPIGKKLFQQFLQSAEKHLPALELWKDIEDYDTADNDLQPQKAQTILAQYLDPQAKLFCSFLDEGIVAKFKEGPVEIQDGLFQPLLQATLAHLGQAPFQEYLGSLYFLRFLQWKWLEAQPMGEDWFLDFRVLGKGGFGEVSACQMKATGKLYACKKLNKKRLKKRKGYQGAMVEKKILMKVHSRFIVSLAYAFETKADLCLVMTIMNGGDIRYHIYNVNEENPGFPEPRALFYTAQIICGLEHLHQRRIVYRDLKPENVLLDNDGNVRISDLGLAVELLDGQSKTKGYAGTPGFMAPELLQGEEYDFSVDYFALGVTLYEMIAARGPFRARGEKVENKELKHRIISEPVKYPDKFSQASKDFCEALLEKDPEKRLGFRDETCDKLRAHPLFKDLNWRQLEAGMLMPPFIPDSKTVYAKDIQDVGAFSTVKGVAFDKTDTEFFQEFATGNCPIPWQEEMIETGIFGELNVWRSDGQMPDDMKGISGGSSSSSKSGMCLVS

## O=C(Nc1cc(-c2cn(CCNc3c4c(nc5ccccc35)CCCC4)nn2)ccn1)Nc1cccc2c1C1CCCCN1C2=O (racemic)
[1]
  Activity: 78%
[2]
  Activity: 92%
[3]
  Activity: 40%
[4]
  Activity: 38%
[5]
  Activity: 100%
[6]
  Activity: 73%
[7]
  Activity: 7%
MDCK-MDR1
  Activity: Non-Toxic
[8]
  Activity: 96%
[9]
  Activity: 37%
[10]
  Activity: 8.2%
[11]
  Activity: 66%
[12]
  IC50: 16 nM
[13]
  Activity: 61%
[14]
  Activity: 3.3%
[15]
  Activity: 75%
[16]
  Activity: 1.4%
[17]
  Activity: 16%
[18]
  Activity: 100%
[19]
  Activity: 1%
[20]
  Activity: 90%
[21]
  Activity: 36%
[22]
  Activity: 0.54%
[23]
  Activity: 90%
[24]
  Activity: 3%
